From patent US20220146519A1, “INTEGRIN ALPHA V BETA 3 TARGETING PROBE FOR DIAGNOSING RETINOCHOROIDAL NEOVASCULAR DISEASES AND PREPARATION METHOD THEREFOR” (SEOUL NATIONAL UNIVERSITY HOSPITAL, priority 2019, published 2022)
“Also recorded” adds a separate entry of the source.

How the values were obtained:
integrin αvβ3 [1] = assay: Fluorescence staining of vessels in retinal and choroidal flatmounts using FITC-labeled RGD peptide; set-up: species or system mouse; details: for staining of choroidal neovascularization lesions (laser-treated areas): ex vivo choroidal flatmount, 7 days after laser-induced choroidal neovascularization, C57BL/6 mice
Sequence of integrin αvβ3 (P43406 31-885 limits assumed): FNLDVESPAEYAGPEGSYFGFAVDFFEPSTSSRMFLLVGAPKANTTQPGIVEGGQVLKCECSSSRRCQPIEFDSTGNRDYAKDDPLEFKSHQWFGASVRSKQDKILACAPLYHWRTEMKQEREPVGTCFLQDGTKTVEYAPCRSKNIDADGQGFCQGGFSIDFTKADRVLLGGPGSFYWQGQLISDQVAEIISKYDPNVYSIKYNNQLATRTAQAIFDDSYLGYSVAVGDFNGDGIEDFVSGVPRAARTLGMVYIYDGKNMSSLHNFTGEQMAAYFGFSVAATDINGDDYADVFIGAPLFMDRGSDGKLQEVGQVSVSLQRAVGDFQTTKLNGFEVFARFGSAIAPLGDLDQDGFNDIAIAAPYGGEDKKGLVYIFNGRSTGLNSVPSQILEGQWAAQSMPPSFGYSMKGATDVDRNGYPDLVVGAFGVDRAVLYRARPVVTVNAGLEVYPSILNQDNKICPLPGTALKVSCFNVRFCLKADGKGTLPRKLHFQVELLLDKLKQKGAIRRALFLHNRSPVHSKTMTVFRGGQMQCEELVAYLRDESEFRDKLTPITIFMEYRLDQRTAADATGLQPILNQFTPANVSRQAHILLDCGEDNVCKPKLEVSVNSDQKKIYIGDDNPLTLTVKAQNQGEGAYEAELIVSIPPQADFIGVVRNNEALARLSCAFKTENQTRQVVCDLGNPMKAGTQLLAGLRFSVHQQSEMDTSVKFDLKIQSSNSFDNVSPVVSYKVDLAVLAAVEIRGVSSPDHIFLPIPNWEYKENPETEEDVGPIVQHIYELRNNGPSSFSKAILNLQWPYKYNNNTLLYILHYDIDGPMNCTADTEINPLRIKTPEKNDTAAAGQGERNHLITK
Sequence of integrin αvβ3 (P43406 887-1044 partner limits assumed): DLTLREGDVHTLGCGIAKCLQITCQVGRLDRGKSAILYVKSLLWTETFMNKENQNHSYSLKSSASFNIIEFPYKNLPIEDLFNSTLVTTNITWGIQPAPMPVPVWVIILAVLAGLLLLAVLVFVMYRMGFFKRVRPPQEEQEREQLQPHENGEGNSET
Sequence of integrin αvβ3 (O54890 26-787, further chain): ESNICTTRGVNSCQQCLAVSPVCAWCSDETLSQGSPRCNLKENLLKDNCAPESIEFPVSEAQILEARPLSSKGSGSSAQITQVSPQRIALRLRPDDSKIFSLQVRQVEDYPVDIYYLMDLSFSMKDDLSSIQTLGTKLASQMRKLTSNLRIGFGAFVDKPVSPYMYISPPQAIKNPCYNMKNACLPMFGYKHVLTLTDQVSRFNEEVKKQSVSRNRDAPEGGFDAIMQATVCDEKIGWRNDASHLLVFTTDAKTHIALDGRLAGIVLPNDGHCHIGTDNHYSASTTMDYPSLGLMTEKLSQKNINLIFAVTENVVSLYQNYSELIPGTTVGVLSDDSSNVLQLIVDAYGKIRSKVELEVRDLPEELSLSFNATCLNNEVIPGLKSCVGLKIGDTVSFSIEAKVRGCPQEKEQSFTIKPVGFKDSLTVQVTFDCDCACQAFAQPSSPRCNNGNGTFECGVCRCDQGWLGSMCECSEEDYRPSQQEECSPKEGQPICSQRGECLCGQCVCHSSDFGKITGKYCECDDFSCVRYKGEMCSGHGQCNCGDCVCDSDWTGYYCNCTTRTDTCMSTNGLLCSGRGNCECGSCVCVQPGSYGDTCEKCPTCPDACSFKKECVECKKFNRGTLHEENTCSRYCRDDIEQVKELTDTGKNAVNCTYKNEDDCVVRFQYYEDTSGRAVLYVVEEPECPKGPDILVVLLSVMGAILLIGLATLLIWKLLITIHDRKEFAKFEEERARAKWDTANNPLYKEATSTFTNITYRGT
Experimental: After intravenous anesthesia using a 1:1 mixture of 100 mg/mL ketamine and 20 mg/mL xylazine and pupillary dilatation using 5.0% phenylephrine and 0.8% tropicamide, C57BL/6 mice were placed on the Mayo stand (Coherent PC-920 Argon Ion Laser System; Coherent Medical Laser, Santa Clara, Calif.). Choroidal neovascularization was induced using 512-nm argon laser photocoagulation, with 100 urn of spot size and 100 mW of power for 0.1 s in the right eye. Five lesions of about 2-3 disc diameters were generated from the optic disc. The formation of bubbles upon laser delivery can be considered sufficient damage to induce rupture of Bruch's membrane and choroidal neovascularization. When subretinal hemorrhage occurred after the laser treatment, the mice were excluded from the experiment.
Ten eyes were prepared as choroidal flatmounts. For the flatmounts, mice were anesthetized at days 7 or 14 and eyes were enucleated and fixed with 4% paraformaldehyde for 30 min at 4° C. The anterior segment and retina were removed from the eyecup, and four radial incisions were made. The remaining retinal pigment epithelium (RPE)-choroid-sclera complex was flatmounted and coverslipped. Flatmounts were examined with a scanning laser confocal microscope (LSM710; Carl Zeiss, Oberkochen, Germany). […]
Fluorescence staining with FITC-D-[c(RGDfK)]^2 was performed as follows: • (1) the retinal and choroidal flatmounts were washed with PBS and incubated with FITC-D-[c(RGDfK)]2 for 30 minutes; • (2) the slides were washed with PBS several times, counterstained with 4′,6-diamidino-2-phenylindole (DAPI), and mounted with ProLong Gold anti-fade reagent (Life Technologies, Carlsbad, Calif., USA); • (3) and after staining, the flatmounts were mounted with the vitreous side up on glass slides and visualized on a confocal microscope (LSM710; Carl Zeiss, Oberkochen, Germany).

integrin αvβ3 [2] = assay: Specificity of FITC-D-[c(RGDfK)]2 staining evaluated with excess cRGD peptides; type: binding, mouse; details: 10 nM probe; 2-hour incubation with 200 nM (20-fold) cRGD before staining; choroidal flatmount
Experimental: Additionally, the specificity of FITC-D-[c(RGDfK)]2 staining was evaluated by using an excess of cRGD peptides. For this experiment, one mouse with identical laser-induced choroidal neovascularization in both eyes was sacrificed. One eye of the mouse was stained with the staining method described above using 10 nM of FITCD-[c(RGDfK)]2. The other eye was stained with the staining method described above plus a 2-hour incubation with excess cRGD peptides (for example, 20-fold molar concentration of the FITC-conjugated cRGD dimer, i.e., 200 nM) prior to the fluorescence staining. In this staining, the present inventors used an integrin αvβ3 antibody to investigate if the staining with the integrin αvβ3 antibody co-localized with that of the FITC-conjugated cRGD dimer.

FITC-D-[c(RGDfK)]2 [FITC-labeled cyclic RGD peptide]
staining of choroidal neovascularization lesions (laser-treated areas) (integrin αvβ3 [1]): intense immunofluorescence staining; also recorded: allowed the visualization of choroidal neovascularization at laser-treated areas
staining of choroidal neovascularization lesions (laser-treated areas) (integrin αvβ3 [1]; listed as FITC-labeled RGD peptide): laser-treated lesion stained with FITC-labeled RGD peptide corresponded to that stained with lectin
staining of normal vessels in the retina (integrin αvβ3 [1]; ex vivo untreated retina flatmount, lectin-positive normal vessels): barely stained
fluorescence of probe after pre-incubation with excess cRGD (integrin αvβ3 [2]): remarkably reduced
